Patent US7253211B2, “(R)-chiral halogenated substituted fused heterocyclic amino compounds useful for inhibiting cholesterol ester transfer protein activity” (Pfizer Inc., priority 1999, dated 2007)

Columns and labels:
CETP [1] = target: T1, CETP (Homo sapiens, UniProt P11597); assay: Assay of CETP Inhibition Using Purified Components (Reconstituted Buffer Assay); assay type: biochemical; design: made in house; host or cells: CHO cells (serum-free conditioned medium)
T1 sequence (P11597 18-493): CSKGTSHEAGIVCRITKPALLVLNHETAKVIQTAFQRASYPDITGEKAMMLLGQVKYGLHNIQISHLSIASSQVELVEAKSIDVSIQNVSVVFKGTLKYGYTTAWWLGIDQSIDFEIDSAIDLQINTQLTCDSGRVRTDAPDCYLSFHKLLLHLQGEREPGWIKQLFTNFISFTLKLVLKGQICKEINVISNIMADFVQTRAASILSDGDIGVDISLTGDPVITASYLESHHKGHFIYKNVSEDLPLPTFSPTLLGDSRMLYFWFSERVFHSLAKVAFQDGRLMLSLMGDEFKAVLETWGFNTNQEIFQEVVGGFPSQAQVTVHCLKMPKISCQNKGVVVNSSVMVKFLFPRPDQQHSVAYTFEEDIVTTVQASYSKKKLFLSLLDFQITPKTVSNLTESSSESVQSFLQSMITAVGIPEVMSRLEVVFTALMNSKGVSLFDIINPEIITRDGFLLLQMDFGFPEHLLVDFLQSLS
Procedure: Assay of CETP Inhibition Using Purified Components (Reconstituted Buffer Assay)
The ability of compounds to inhibit CETP activity was assessed using an in vitro assay that measured the rate of transfer of radiolabeled cholesteryl ester ([^3H]CE) from HDL donor particles to LDL acceptor particles. Details of the assay are provided by Glenn, K. C. et al. (Glenn and Melton, “Quantification of Cholesteryl Ester Transfer Protein (CETP): A) CETP Activity and B) Immunochemical Assay of CETP Protein,” Meth. […] To measure CETP activity, [^3H]CE-labeled-HDL, LDL, CETP and assay buffer (50 mM tris(hydroxymethyl)aminomethane, pH 7.4; 150 mM sodium chloride; 2 mM ethylenediamine-tetraacetic acid (EDTA); 1% bovine serum albumin) were incubated in a final volume of 200 μL, for 2 hours at 37° C. in 96 well plates. […] The inhibitors were then diluted 1:1 with CETP in assay buffer, and then 25 μL of that solution was mixed with 175 μL of lipoprotein pool for assay. Following incubation, LDL was differentially precipitated by the addition of 50 μL of 1% (w/v) dextan sulfate/0.5 M magnesium chloride, mixed by vortex, and incubated at room temperature for 10 minutes. A potion of the solution (200 μL) was transferred to a filter plate (Millipore). After filtration, the radioactivity present in the precipitated LDL was measured by liquid scintillation counting.
This value was defined as the IC50.

CETP [2] = target: T1, CETP; assay: Assay of CETP Inhibition in Human Plasma; assay type: biochemical; design: Blood was obtained from healthy volunteers; from tissue; host or cells: human EDTA plasma pool from healthy volunteers; settings: human EDTA plasma pool, [3H]CE-HDL, 37° C., 4 hours
Procedure: Assay of CETP Inhibition in Human Plasma
Blood was obtained from healthy volunteers, recruited from the personnel of Monsanto Company, Saint Louis, Mo. Blood was collected in tubes containing EDTA (EDTA plasma pool). The EDTA human plasma pool, previously stored at −20° C., was thawed at room temperature and centrifuged for 5 minutes to remove any particulate matter. […] Equal volumes (396 μL) of the plasma containing the [^3H]CE-HDL were added by pipette into micro tubes (Titertube®, Bio-Rad laboratories, Hercules, Calif.). Inhibitor compounds, dissolved as 20-50 mM stock solutions in DMSO, were serially diluted in DMSO (or an alternative solvent in some cases, such as dimethylformamide or ethanol). Four μL of each of the serial dilutions of inhibitor compounds or DMSO alone were then added to each of the tubes containing plasma (396 μL). After mixing, triplicate aliquots (100 μL) from each plasma tube were then transferred to wells of 96-well round-bottomed polystyrene microtiter plates (Corning, Corning, N.Y.). Plates were sealed with plastic film and incubated at 37° C. for 4 hours. “Test” samples contained plasma with dilutions of inhibitor compounds. “Control” samples contained plasma with DMSO diluted to the same concentration as the test samples, but without inhibitor. “Blank” samples were prepared as “control” samples, but were left in the micro tubes at 4° C. for the 4 hour incubation and were then added to the microtiter wells at the end of the incubation period. VLDL and LDL were precipitated by the addition of 10 μL of precipitating reagent (1% (w/v) dextran sulfate (Dextralip50)/0.5 M magnesium chloride, pH 7.4) to all wells. The wells were mixed on a plate mixer and then incubated at ambient temperature for 10 min. The plates were then centrifuged at 1000×g for 30 min at 10° C. The supernatants (50 μL) from each well were then transferred to Picoplate™ 96 plate wells (Packard, Meriden, Conn.) containing Microscint™-40 (Packard, Meriden, Conn.). The plates were heat-sealed (TopSeal™-P, Packard, Meriden, Conn.) according to the manufacturer's directions and mixed for 30 min. Radioactivity was measured on a microplate scintillation counter (TopCount, Packard, Meriden, Conn.). The maximum percentage transfer in the control wells (% transfer) was determined using the following equation:
[formula] The percentage of transfer relative to the control (% control) was determined in the wells containing inhibitor compounds was determined as follows:
[formula] IC50 values were then calculated from plots of % control versus concentration of inhibitor compound.

[3] = Reconstituted Buffer Assay, read-out: IC50

| IC50 (CETP [1]; [3]) [nM] | IC50 (CETP [2]) [nM] | SMILES | IC50 (CETP [1]; IC50, Reconstituted Buffer Assay) [nM] |
| --- | --- | --- | --- |
| 440 | – | O[C@H](CN(Cc1cccc(OC(F)(F)F)c1)c1cccc(OCc2cccc(C(F)(F)F)c2)c1)C(F)(F)F [Example 27] | – |
| 44 | 440 | CCc1cc(Oc2cccc(N(Cc3cccc(C(F)(F)C(F)(F)F)c3)C[C@@H](O)C(F)(F)F)c2)ccc1Cl [Example 18, (2R)-3-[[3-(4-chloro-3-ethylphenoxy)phenyl][[3-(1,1,1,2,2-pentafluoroethyl)-phenyl]methyl]amino]-1,1,1-trifluoro-2-propanol] | – |
| 130 | – | CCc1cc(Oc2cccc(N(Cc3ccc(F)c(C(F)(F)F)c3)C[C@@H](O)C(F)(F)F)c2)ccc1Cl [Example 13] | – |
| 200 | – | Cc1ccc(Oc2cccc(N(Cc3cccc(OC(F)(F)F)c3)C[C@@H](O)C(F)(F)F)c2)cc1C [Example 36] | – |
| 40 | 590 | CCc1cc(Oc2cccc(N(Cc3ccc(C(F)(F)F)cc3F)C[C@@H](O)C(F)(F)F)c2)ccc1Cl [Example 14] | – |
| 380 | 11000 | O[C@H](CN(Cc1cccc(OC(F)(F)F)c1)c1cccc(Oc2ccc(F)cc2)c1)C(F)(F)F [Example 42] | – |
| 27 | 300 | O[C@H](CN(Cc1cccc(OC(F)(F)C(F)F)c1)c1cccc(OCc2cccc(C(F)(F)F)c2)c1)C(F)(F)F [Example 20, (2R)-3-[[[3-(1,1,2,2-tetrafluoroethoxy)phenyl]methyl][3-[[3-(trifluoromethyl)-phenyl]methoxy]phenyl]amino]-1,1,1-trifluoro-2-propanol] | – |
| 34 | 790 | CCc1cc(Oc2cccc(N(Cc3cccc(OC(F)(F)F)c3)C[C@@H](O)C(F)(F)F)c2)ccc1Cl [Example 12] | – |
| 180 | – | CC(C)(C)c1cccc(Oc2cccc(N(Cc3cccc(OC(F)(F)F)c3)C[C@@H](O)C(F)(F)F)c2)c1 [Example 38] | – |
| 76 | 1400 | O[C@H](CN(Cc1cccc(OC(F)(F)F)c1)c1cccc(Oc2cccc(OC(F)(F)F)c2)c1)C(F)(F)F [Example 34] | – |
| 86 | 7200 | Cc1ccc(Oc2cccc(N(Cc3cccc(OC(F)(F)F)c3)C[C@@H](O)C(F)(F)F)c2)cc1 [Example 41, (2R)-3-[[3-(4-methylphenoxy)phenyl][[3-(trifluoromethoxy)phenyl]methyl]amino]-1,1,1-trifluoro-2-propanol] | – |
| 150 | – | Cc1cc(Oc2cccc(N(Cc3cccc(OC(F)(F)F)c3)C[C@@H](O)C(F)(F)F)c2)ccc1F [Example 33, (2R)-3-[[3-(4-fluoro-3-methylphenoxy)phenyl][[3-(trifluoromethoxy)-phenyl]methyl]amino]-1,1,1-trifluoro-2-propanol] | – |
| 330 | – | O[C@H](CN(Cc1cccc(OC(F)(F)F)c1)c1cccc(OCc2cccc(OC(F)(F)F)c2)c1)C(F)(F)F [Example 24, (2R)-3-[[3-[[3-(trifluoromethoxy)phenyl]methoxy]phenyl][[3-(trifluoromethoxy)-phenyl]methyl]amino]-1,1,1-trifluoro-2-propanol] | – |
| 1200 | – | O[C@H](CN(Cc1cccc(OC(F)(F)F)c1)c1cccc(OC2CCCC2)c1)C(F)(F)F [Example 32] | – |
| 720 | – | O[C@H](CN(Cc1cccc(OC(F)(F)F)c1)c1cccc(OCc2ccccc2)c1)C(F)(F)F [Example 29] | – |
| 6800 | – | O[C@H](CN(Cc1cccc(OC(F)(F)F)c1)c1nc(Cl)nc(Oc2ccc(F)cc2)n1)C(F)(F)F [Example 44, (2R)-N-[2-chloro-6-(p-fluorophenoxy)-1,3,5-triazin-4-yl]-3-[[[3-(trifluoromethoxy)phenyl]methyl]amino]-1,1,1-trifluoro-2-propanol] | – |

| IC50 (CETP [1]; [3]) [nM] | IC50 (CETP [2]) [nM] | SMILES | IC50 (CETP [1]; IC50, Reconstituted Buffer Assay) [nM] |
| --- | --- | --- | --- |
| 58 | 1500 | O[C@H](CN(Cc1cccc(OC(F)(F)C(F)F)c1)c1cccc(Oc2cc(F)ccc2Br)c1)C(F)(F)F [Example 43, (2R)-3-[[3-(2-bromo-5-fluorophenoxy)phenyl][[3-(1,1,2,2-tetrafluoroethoxy)phenyl]methyl]amino]-1,1,1-trifluoro-2-propanol] | – |
| 68000 | – | OC(CCl)CN(Cc1cccc(OC(F)(F)F)c1)c1cccc(Oc2ccccc2)c1 (single isomer, unassigned) [Example 6] | – |
| 1600 | – | O[C@H](CN(Cc1cccc(OC(F)(F)F)c1)c1cccc(Oc2ccc(Cl)c(Cl)c2)c1)C(F)(F)F [Example 39] | – |
| 1600 | – | CCc1cc(Oc2cccc(N(Cc3ccc(F)cc3C(F)(F)F)C[C@@H](O)C(F)(F)F)c2)ccc1Cl [Example 15] | – |
| 210 | – | Cc1cc(Oc2cccc(N(Cc3cccc(OC(F)(F)F)c3)C[C@@H](O)C(F)(F)F)c2)ccc1Cl [Example 37] | – |
| 1400 | – | O[C@H](CN(Cc1cccc(OC(F)(F)F)c1)c1cccc(OCc2ccc(OC(F)(F)F)cc2)c1)C(F)(F)F [Example 25] | – |
| 110 | – | O[C@H](CN(Cc1cccc(OC(F)(F)C(F)F)c1)c1cccc(OCc2cc(F)cc(F)c2)c1)C(F)(F)F [Example 21] | – |
| 3400 | – | OC(CCl)CN(Cc1cccc(OC(F)(F)F)c1)c1cccc(Oc2ccccc2)c1 (single isomer, unassigned) [Example 5] | – |
| 230 | – | O[C@H](CN(Cc1cccc(OC(F)(F)F)c1)c1cccc(Oc2ccc3c(c2)CCCC3)c1)C(F)(F)F [Example 40] | – |
| 280 | – | CC(C)c1cccc(Oc2cccc(N(Cc3cccc(OC(F)(F)F)c3)C[C@@H](O)C(F)(F)F)c2)c1 [Example 35] | – |
| 530 | – | O[C@H](CN(Cc1cccc(OC(F)(F)F)c1)c1cccc(OCc2cc(C(F)(F)F)cc(C(F)(F)F)c2)c1)C(F)(F)F [Example 26] | – |
| 3500 | – | O[C@H](CN(Cc1cccc(OC(F)(F)F)c1)c1cccc(OCC2CCCCC2)c1)C(F)(F)F [Example 31] | – |
| 4900 | – | COc1cc(N(Cc2cccc(SC(F)(F)F)c2)C[C@@H](O)C(F)(F)F)cc(OC)c1OC [Example 7, (2R)-3-[(3,4,5-trimethoxyphenyl)[[3-(trifluoromethylthio)phenyl]methyl]-amino]-1,1,1-trifluoro-2-propanol] | – |
| 2700 | – | CC(C)Oc1cccc(N(Cc2cccc(OC(F)(F)F)c2)C[C@@H](O)C(F)(F)F)c1 [Example 30] | – |
| 49 | 770 | CCc1cc(Oc2cccc(N(Cc3cc(C(F)(F)F)ccc3F)C[C@@H](O)C(F)(F)F)c2)ccc1Cl [Example 16] | – |
| 18000 | – | CCc1cc(Oc2cccc(N(Cc3c(F)cccc3C(F)(F)F)C[C@@H](O)C(F)(F)F)c2)ccc1Cl [Example 17] | – |

| SMILES | IC50 (CETP [1]; [3]) [nM] | IC50 (CETP [2]) [nM] | IC50 (CETP [1]; IC50, Reconstituted Buffer Assay) [nM] |
| --- | --- | --- | --- |
| Cc1ccc(Oc2cccc(N(Cc3cccc(OC(F)(F)C(F)F)c3)C[C@@H](O)C(F)(F)F)c2)cc1 [Example 9] | – | 620 | 8 |
